Source: patent publication US5843925A, “Methods for inhibiting angiogenesis, proliferation of endothelial or tumor cells and tumor growth” (American Cyanamid Company, priority 1994, dated 1998)
In brackets after ≈: the same amount, converted by molar mass. Counter-ions that a name gives are not always drawn.

Assays:
SW620 = assay: Antiproliferative activity in human tumor cell lines (SW620); assay type: cell-based; details: SW-620, SW620 colon tumor cell line
Protocol: (§1) PROTOCOLS 1, 2, and 3 are described in greater detail hereinbelow. In general, according to PROTOCOLS 1 and 2, the target ABAE and/or Human Tumor cells are exposed to the compound of Formula I for 48 hours. PROTOCOL 3 exposes ABAE cells to the compounds for 4 days. A detailed description of the protocol is as follows:
(§2) The antiproliferative activity of the compounds of Formula I of the present invention is evaluated in a panel comprised of human tumor cell lines and an adult bovine aortic endothelial cell line (ABAE). The human tumor cell lines are from
(§3) All cell lines are maintained in log phase in RPMI 1640 media, supplemented with 5% fetal calf serum, penicillin/streptomycin and 2 mM L-glutamine. Cultures are renewed after 20 passages with cells from a fresh stock of batch-frozen early passage cells. Cell lines are routinely checked for mycoplasma contamination (Genprobe). In a laminar flow hood, cells (1-5×10^4) are plated into 96-well microtiter plates in a volume of 0.1 ml/well with a bulk microtiter dispenser (Denley). […] At this concentration, dimethylsulfoxide has no effect on cell growth. Compounds are added using a Tomtec dispenser which simultaneously dispenses from one 96-well plate, containing the drug dilutions, to the plates containing the cells. After two days of continuous drug exposure, 50% cold trichloroacetic acid (TCA) is added to 10% final concentration to fix the cells, and after 60 minutes at 4° C., the TCA is aspirated and the plates are washed 5 times with deionized water using a microtiter plate washer. The number of cells on the plate are quantitated using a protein dye-binding assay (Monks et al., 1991). A 0.4% solution of the dye, sulforhodamine B, in glacial acetic acid is added to the plates, and the plates are washed 5 times with 1% glacial acetic acid using the automatic plate washed. The bound stain is solubilized with 0.1 ml of 10 mM Tris base. The optical densities are read from an automatic spectrophotometric plate reader (Dynatech) directly to a main frame computer (VAX 8600).
(§4) Positive controls, that include standard chemotherapeutic drugs (i.e., adriamycin, cisplatin, etc.), are included in every experiment.
(§5) Background optical density measurements (complete media-cells, and complete media+drug-cells) are automatically subtracted from the appropriate control and test wells. Mean values and standard errors are determined from duplicate wells. A measure is also made of the optical density at time when the drugs are added. The number of cells after treatment (P), as % of control, is calculated for every concentration of drug, as follows: [formula] wherein: T is optical density measurement for treated cells after 48 hours;
(§6) C is optical density measurement for untreated cells after 48 hours;
(§7) Co is optical density measurement for cells at the time of drug addition.
(§8) IC50 of growth inhibition is calculated from the sets of P values using the RS-1 data package (BBN Software).
(§9) Antiproliferative Activity in Human Tumor Cell Lines
(§10) The antiproliferative activity of the compounds of Formula I is evaluated in the panel comprised of human tumor cell lines as listed in PROTOCOL 1. This assay is a slight modification of PROTOCOL 1. The modifications include:
(§11) 1) each concentration for each compound is tested in a single well;
(§12) 2) compounds are tested at 20, 4, 0.8, 0.16 microgram/ml and additionally in some experiments at 100 and 0.32 microgram/ml;
(§13) 3) samples are pipetted into a 96-well plate for each of the cell lines by a Beckman Biomek 1000 SL robot;
(§14) 4) after fixing with TCA each well is washed with 0.35 ml distilled water twice, not five times;
(§15) 5) after staining with sulforhodamine B each well is washed 3 times, not five times;
(§16) 6) the growth inhibition (I) as % of control, is calculated using the RS-1 data package (BBN Software), for every concentration of drug, as follows: [formula] wherein: T is optical density measurement for treated cells after 48 hours; […]

HTB 161 = assay: Antiproliferative activity in human tumor cell lines (HTB 161); assay type: cell-based
Protocol: as §1, §2
(§17) Cultures are renewed after 20 passages with cells from a fresh stock of batch-frozen early passage cells. Cell lines are routinely checked for mycoplasma contamination (Genprobe). In a laminar flow hood, cells (1-5×10^4) are plated into 96-well microtiter plates in a volume of 0.1 ml/well with a bulk microtiter dispenser (Denley). […] Compounds are added using a Tomtec dispenser which simultaneously dispenses from one 96-well plate, containing the drug dilutions, to the plates containing the cells. After two days of continuous drug exposure, 50% cold trichloroacetic acid (TCA) is added to 10% final concentration to fix the cells, and after 60 minutes at 4° C., the TCA is aspirated and the plates are washed 5 times with deionized water using a microtiter plate washer. […] A 0.4% solution of the dye, sulforhodamine B, in […] is added to the plates, and the plates are washed 5 times with 1% glacial acetic acid using the automatic plate washed. The bound stain is solubilized with 0.1 ml of 10 mM Tris base. The optical densities are read from an automatic spectrophotometric plate reader (Dynatech) directly to a main frame computer (VAX 8600).
as §4, §5, §6, §7, §8, §9, §10, §11, §12, §13, §14, §15
(§18) 6) the growth inhibition (I) as % of control, is calculated using the RS-1 data package (BBN Software), for every concentration of drug, as follows: [formula] wherein: T is optical density measurement for treated cells after 48 hours;
(§19) 7) IC50 of growth inhibition is determined graphically from dose response curves, as is known in the art.

MIP = assay: Antiproliferative activity in human tumor cell lines (MIP); assay type: cell-based; details: MIP colon tumor cell line
Protocol: as §1, §2, §3, §4, §5, §6, §7, §8, §9, §10, §11, §12, §13, §14, §15, §16

A2780/DDP = assay: Antiproliferative activity in human tumor cell lines (A2780/DDP); assay type: cell-based; details: A2780/DDP ovarian tumor cell line
Protocol: as §1, §2, §17, §4, §5, §6, §7, §8, §9, §10, §11, §12, §13, §14, §15, §18, §19

A2780S = assay: Antiproliferative activity in human tumor cell lines (A2780S); assay type: cell-based; details: A2780S ovarian tumor cell line
Protocol: as §1, §2, §17, §4, §5, §6, §7, §8, §9, §10, §11, §12, §13, §14, §15, §18, §19

Human Tumor cell lines = assay: Antiproliferative activity in panel of human tumor cell lines (PROTOCOL 1 and PROTOCOL 2); assay type: cell-based; details: for IC50: Homo sapiens, average over the tumor cell lines of Table 3
Protocol: (§20) The antiproliferative activity of the compounds of Formula I in an Adult Bovine Aortic Endothelial (ABAE) cell line and in Human Tumor cells lines is evaluated in three similar assays that measure growth inhibition. The assays are identified as follows:
as §1, §2, §3, §4, §5, §6, §7, §8, §9, §10, §11, §12, §13, §14
5) after staining with sulforhodamine B each well is washed 3 times, not five times; […]

CACO2 = assay: Antiproliferative activity in human tumor cell lines (CACO2); assay type: cell-based; details: Caco-2, CACO2 colon tumor cell line
Protocol: as §1, §2, §3, §4, §5, §6, §7, §8, §9, §10, §11, §12, §13, §14, §15, §16

[1] = system: Adult Bovine Aortic Endothelial (ABAE) cell line; assay: Antiproliferative activity in Adult Bovine Aortic Endothelial (ABAE) cell line, PROTOCOL 3; assay type: cell-based; details: 4 day assay (Protocol 3)
Protocol: as §20, §1
Antiproliferative Activity in Adult Bovine Aortic Endothelial (ABAE) Cell Line
ABAE cells are grown in DMEM media (Mediatech Washington, D.C.) supplemented with 10% calf serum (Hyclone). ABAE cells are plated in 24-well dishes at 8,000 cells/well, followed by the addition of increasing concentrations of 7-[substituted amino]-9-[(substituted glycyl)amido]-6-demethyl-6-deoxytetra-cyclines. After four days, the cells are detached and counted. […] The growth inhibition (I) as % of control is calculated as follows: [formula] wherein: Nc is the number of cells in untreated wells;
Nt is the number of cells in treated wells;
No is the number of plated cells.
IC50 of growth inhibition is determined from the sets of I values plotted by Kaleidograph software (Abelbeck Software).
Table 2 presents the results depicting the antiproliferative activity of the compounds of Formula I against an adult bovine aortic endothelial cell line (ABAE), as evaluated by PROTOCOL 1 and PROTOCOL 3. The results are presented in terms of IC50 and are as follows.

angiogenesis = details: Cancer Research 51, 672-675, Brem et al; cited from earlier work
[2] = highest concentration, human tumor cell lines

Row | Compound | IC50 (SW620) | IC50 (HTB 161) | IC50 (MIP) | IC50 (A2780/DDP) | IC50 (A2780S) | IC50 (Human Tumor cell lines) | IC50 (CACO2) | activity upon incubation with cells [1] | inhibition of angiogenesis vs combination therapy of heparin and cortisone (angiogenesis) | cell growth at highest concentration (Human Tumor cell lines; [2]) | dead floating cells (Human Tumor cell lines; [2]) | inhibition of cell growth (Human Tumor cell lines; highest concentrations, 6 human tumor cell lines, FIG. 2)
1 | CCCN(CCC)c1cc(NC(=O)CN(C)C)c(O)c2c1CC1CC3[C@H](N(C)C)C(O)=C(C(N)=O)C(=O)[C@@]3(O)C(O)=C1C2=O (stereo partly drawn) [Example 6, [4S-(4α,12aα)]-4-(Dimethylamino)-9-[[(dimethylamino)acetyl]amino]-7-(dipropylamino)-1,4,4a,5,5a,6,11,12a-octahydro-3,10,12,12a-tetrahydroxy-1,11-dioxo-2-naphthacenecarboxamide sulfate (1:1)] | 3 µg/mL | 3 µg/mL | 10 µg/mL | 3 µg/mL | 3.5 µg/mL | 5.1 µg/mL | 8 µg/mL |  |  |  |  | 
2 | CN(C)c1ccc(O)c2c1C[C@H]1C[C@H]3[C@H](N(C)C)C(O)=C(C(N)=O)C(=O)[C@@]3(O)C(O)=C1C2=O [Minocycline, reference compound] |  |  |  |  |  |  | 9 µg/mL (≈ 19.7 µM) | losing its activity upon incubation with cells | inhibits angiogenesis to an extent comparable to that of the combination therapy of heparin and cortisone |  |  | 
3 | CC(C)CN(CC(C)C)c1cc(NC(=O)CN(C)C)c(O)c2c1CC1CC3[C@H](N(C)C)C(O)=C(C(N)=O)C(=O)[C@@]3(O)C(O)=C1C2=O (stereo partly drawn) [Example 8, [4S-(4α,12aα)]-7-[Bis(2-methylpropyl)amino]-4-(dimethylamino)9-[[(dimethylamino)acetyl]amino]-1,4,4a,5,5a,6,11,12a-octahydro-3,10,12,12a-tetrahydroxy-1,11-dioxo-2-naphthacenecarboxamide sulfate] | 1.5 µg/mL | 2.5 µg/mL | 10 µg/mL | 1.5 µg/mL | 2.5 µg/mL | 4 µg/mL | 6 µg/mL |  |  | the cells continue to grow | Dead floating cells were not observed | no 100% inhibition of cell growth
4 | CCCCN(CC1CC1)c1cc(NC(=O)CN(C)C)c(O)c2c1CC1CC3C(N(C)C)C(O)=C(C(N)=O)C(=O)C3(O)C(O)=C1C2=O (stereo not drawn) [Example 7, 7-[Butyl(cyclopropylmethyl)amino]-4-(dimethylamino)-9 [[(dimethylamino)acetyl]amino]-1,4,4a,5,5a,6,-11,12a-octahydro-3,10,12,12a-tetrahydroxy-1,11-dioxo-2-naphthacenecarboxamide sulfate (1:2)] | 3.5 µg/mL | 3 µg/mL | 8 µg/mL | 3 µg/mL | 3 µg/mL | 5.1 µg/mL | 10 µg/mL |  |  |  |  | 
5 | CN(C)c1cc(NC(=O)CN2CCCC2)c(O)c2c1CC1CC3[C@H](N(C)C)C(O)=C(C(N)=O)C(=O)[C@@]3(O)C(O)=C1C2=O (stereo partly drawn) [Example 3, [7S-(7α,10aα)]-N-[9-(Aminocarbonyl)-4,7-bis(dimethylamino)-5,5a,6,6a,7,10,10a,12-octahydro-1,8-10a,11-tetrahydroxy-10,12-dioxo-2-naphthacenyl]-1-pyrrolidineacetamide dihydrochloride] | 2.3 µg/mL | 2.3 µg/mL | 2.45 µg/mL | 2.7 µg/mL | 2.4 µg/mL | 2.4 µg/mL |  |  |  |  |  | 
